Laboratory results: ChEMBL document CHEMBL1926647, “Discovery of 4-aminomethylphenylacetic acids as γ-secretase modulators via a scaffold design approach” (Bioorg Med Chem Lett, 2011)
pEC50, pIC50: −log10 of the molar value. One block for each compound: values may come before it. Calls of active or inactive are those of the source. The calls are words filed in the database; no cut-off is given here.

Key:
Mus musculus [1] = assay: Inhibition of gamma-secretase-mediated cleavage of APP in wild type CF1 mouse brain assessed as inhibition of amyloid beta42 production at 12.5 mg/kg, po after 4 hrs by ELISA; assay type: functional; conditions: 12.5 mg/kg
Brain = assay: Drug uptake in rat brain at 30 mg/kg, po after 4 hrs; conditions: in vivo
Rattus norvegicus = assay: Inhibition of gamma-secretase-mediated cleavage of APP in rat brain assessed as inhibition of amyloid beta42 production at 30 mg/kg, po after 4 hrs by ELISA
[2] = Modulation of gamma-secretase expressed in CHO cells co-expressing APP V717F mutant assessed as reduction in amyloid beta42 production after 17 hrs by ELISA; assay type: cell-based
Mus musculus [3] = assay: Inhibition of gamma-secretase-mediated cleavage of APP in wild type CF1 mouse brain assessed as inhibition of amyloid beta42 production at 50 mg/kg, po after 4 hrs by ELISA; assay type: functional
[4] = Drug uptake in wild type CF1 mouse brain at 50 mg/kg, po after 4 hrs; assay type: ADME, organism-based; design: dose 50 mg/kg, route oral; conditions: read-out: Drug uptake
Nucleic Acid = assay: Ratio of drug level in brain in wild type CF1 mouse to EC50 for gamma-secretase expressed in CHO cells; assay type: cell-based
CHO [5] = assay: Modulation of gamma-secretase expressed in CHO cells co-expressing APP V717F mutant assessed as increase in amyloid beta38 secretion after 17 hrs by ELISA; assay type: cell-based
CHO [6] = assay: Modulation of gamma-secretase expressed in CHO cells co-expressing APP V717F mutant assessed as effect on amyloid beta40 production after 17 hrs by ELISA; assay type: cell-based
[7] = Drug uptake in wild type CF1 mouse plasma at 50 mg/kg, po after 4 hrs; assay type: ADME, organism-based; design: dose 50 mg/kg, route oral
Mus musculus [8] = assay: Inhibition of gamma-secretase-mediated cleavage of APP in wild type CF1 mouse brain assessed as inhibition of amyloid beta42 production at 30 mg/kg, po after 4 hrs by ELISA; assay type: functional; conditions: for inhibition in vivo at 30 mg/kg: Mus musculus, CF1, Brain, po, 4 h
[9] = Drug uptake in wild type CF1 mouse brain at 30 mg/kg, po after 4 hrs; assay type: ADME, organism-based; design: dose 30 mg/kg, route oral; conditions: read-out: Drug uptake
[10] = Drug uptake in wild type CF1 mouse plasma at 30 mg/kg, po after 4 hrs; assay type: ADME, organism-based; design: dose 30 mg/kg, route oral
Mus musculus [11] = assay: Inhibition of gamma-secretase-mediated cleavage of APP in orally dosed wild type CF1 mouse brain assessed as inhibition of amyloid beta42 production after 4 hrs by ELISA; assay type: functional, organism-based
MC-IXC/H4 = assay: Inhibition of Notch intracellular domain in human MC-IXC/H4 cells assessed as reduction in HES1 protein expression at 10 uM after 24 hrs Western blotting; assay type: cell-based

pEC50 [2]: 6.17
concentration at 4 h [4]: 7 µM
SMILES: CC(C)CCN(Cc1ccc(CC(=O)O)cc1-c1ccc(C(F)(F)F)cc1)[C@H]1CC[C@H](C(C)(C)C)CC1
inhibition in vivo at 50 mg/kg (Mus musculus [3]): 24%
Ratio (Nucleic Acid): 10

pEC50 [2]: 5.85
SMILES: O=C(O)Cc1ccc(C(CCC(F)(F)F)N2CCC(C(F)(F)F)CC2)c(-c2ccc(C(F)(F)F)cc2)c1 (centres undefined)

pEC50 [2]: 5.25
SMILES: CC(C)CCN(Cc1ccc(CC(=O)O)cc1-c1ccc(F)cc1)[C@H]1CC[C@H](C(C)(C)C)CC1

pIC50 [2]: 6.15
SMILES: CC(C)(C)CC(c1ccc(CC(=O)O)cc1-c1ccc(C(F)(F)F)cc1)N1CCC(C(F)(F)F)CC1 (single isomer, unassigned; enantiomer 1)
inhibition (INH) (Mus musculus [8]; 30 mg/kg): 25%

pEC50 [2]: 6.68
concentration at 4 h [9]: 4 µM
concentration at 4 h [10]: 14 µM
SMILES: CC(C)CCC(c1ccc(C(CC(C)C)C(=O)O)cc1-c1ccc(C(F)(F)F)cc1)N1CCC(C(F)(F)F)CC1 (centres undefined)
inhibition in vivo at 30 mg/kg (Mus musculus [8]): 21%

pEC50 [2]: 6.27
concentration at 4 h [9]: 18 µM
concentration at 4 h [10]: 25 µM
SMILES: O=C(O)Cc1ccc(C(CC2CCCCC2)N2CCC(C(F)(F)F)CC2)c(-c2ccc(C(F)(F)F)cc2)c1 (centres undefined)
inhibition in vivo at 30 mg/kg (Mus musculus [8]): 30%

pEC50 [2]: 6.28
SMILES: CC(C)CCC(c1ccc(CC(=O)O)cc1-c1ccc(C(F)(F)F)cc1)N1CCCC(C(F)(F)F)C1 (mixture of isomers)

More lines, now with the values behind:

SMILES: CC(C)(C)CC(c1ccc(CC(=O)O)cc1-c1ccc(C(F)(F)F)cc1)N1CCC(C(F)(F)F)CC1 (single isomer, unassigned; enantiomer 2) [listing 1 of 2 here]
inhibition (INH) (Mus musculus [1]): 30%
concentration (Brain): 26 µM
inhibition (INH) (Rattus norvegicus): 30%

SMILES: CC(C)CCN(Cc1ccc(CC(=O)O)cc1-c1ccc(C(F)(F)F)cc1)c1ccc(C(F)(F)F)cc1
pEC50 [2]: 5.82
Activity (CHO [5]): Active
Activity (CHO [6]): inactive
inhibition (Mus musculus [3]): inactive
concentration at 4 h [4]: 0.6 µM
concentration at 4 h [7]: 15 µM

SMILES: CC(C)CCC(c1ccc(CC(=O)O)cc1-c1ccc(C(F)(F)F)cc1)N1CCC(F)CC1 (centres undefined)
pEC50 [2]: 5.48

SMILES: CC(C)CCC(c1ccc(CC(=O)O)cc1-c1ccc(C(F)(F)F)cc1)N1CC[C@@H](F)C1 (some centres undefined)
pEC50 [2]: < 5.00

SMILES: O=C(O)Cc1ccc(C(C2CCCCC2)N2CCC(C(F)(F)F)CC2)c(-c2ccc(C(F)(F)F)cc2)c1 (centres undefined)
pEC50 [2]: 6.38
inhibition in vivo at 30 mg/kg (Mus musculus [8]): 15%
concentration at 4 h [9]: 10 µM
concentration at 4 h [10]: 23 µM

SMILES: CC(C)(C)CC(c1ccc(CC(=O)O)cc1-c1ccc(C(F)(F)F)cc1)N1CCC(C(F)(F)F)CC1 (racemic)
inhibition (Mus musculus [11]): Dose-dependent effect

SMILES: CC(C)(C)CC(c1ccc(CC(=O)O)cc1-c1ccc(C(F)(F)F)cc1)N1CCC(C(F)(F)F)CC1 (single isomer, unassigned; enantiomer 2) [listing 2 of 2 here]
inhibition (MC-IXC/H4): inactive
